In ChEMBL document CHEMBL5032511, “Improving Druggability of Novel Diarylpyrimidine NNRTIs by a Fragment-Based Replacement Strategy: From Biphenyl-DAPYs to Heteroaromatic-Biphenyl-DAPYs” (J Med Chem, 2021):

Legend:
[1] = AUC (infinity) in Sprague-Dawley rat at 5 mg/kg, po by LCMS analysis; type: ADME, organism-based; parameters: route oral, time infinity, dose 5 mg/kg; settings: in vivo
[2] = Acute toxicity in fasted mouse assessed as mouse death at 2 g/Kg, IG; settings: in vivo, po, 2000 mg/kg
[3] = AUC (infinity) in Sprague-Dawley rat at 1 mg/kg, iv by LCMS analysis; type: ADME, organism-based; parameters: route intravenous, time infinity, dose 1 mg/kg; settings: in vivo
[4] = Acute toxicity in fasted mouse assessed as pathological changes in spleen at 2 g/Kg, IG upto 2 weeks after 14 days by H and E staining based analysis; type: tissue-based; settings: in vivo, po, 2000 mg/kg, 336 h
[5] = Stability in human liver microsome assessed as binding constant at 1 uM in presence of NADPH by LC/MS/MS analysis; settings: microsomes
[6] = Acute toxicity in fasted mouse assessed as weight loss at 2 g/Kg, IG upto 2 weeks; settings: in vivo, po, 2000 mg/kg, 336 h
[7] = Acute toxicity in fasted mouse assessed as behavioral changes at 2 g/Kg, IG upto 2 weeks; settings: in vivo, po, 2000 mg/kg, 336 h
in vitro [8] = settings: rat, liver microsomes
[9] = MRT (infinity) in Sprague-Dawley rat at 1 mg/kg, iv by LCMS analysis; type: ADME, organism-based; settings: in vivo
[10] = Stability in mouse liver microsome assessed as half life at 1 uM in presence of NADPH by LC/MS/MS analysis; type: ADME; settings: liver microsomes
[11] = Acute toxicity in fasted mouse assessed as pathological changes in liver at 2 g/Kg, IG upto 2 weeks after 14 days by H and E staining based analysis; type: tissue-based; settings: in vivo, po, 2000 mg/kg, 336 h
[12] = Stability in mouse liver microsome assessed as binding constant at 1 uM in presence of NADPH by LC/MS/MS analysis; type: ADME; settings: microsomes
[13] = Half life in Sprague-Dawley rat at 1 mg/kg, iv by LCMS analysis; type: ADME, organism-based; settings: in vivo
[14] = Acute toxicity in fasted mouse assessed as pathological changes in kidney at 2 g/Kg, IG upto 2 weeks after 14 days by H and E staining based analysis; type: tissue-based; settings: in vivo, po, 2000 mg/kg, 336 h
[15] = Clearance in Sprague-Dawley rat at 1 mg/kg, iv; type: ADME, organism-based; settings: in vivo
[16] = Tmax in Sprague-Dawley rat at 5 mg/kg, po by LCMS analysis; type: ADME, organism-based; settings: in vivo
[17] = Intrinsic clearance in mouse liver microsome at 1 uM in presence of NADPH by LC/MS/MS analysis; type: ADME; settings: liver microsomes, read-out: CLH
[18] = Acute toxicity in fasted mouse assessed as pathological changes in brain at 2 g/Kg, IG upto 2 weeks after 14 days by H and E staining based analysis; type: tissue-based; settings: in vivo, po, 2000 mg/kg, 336 h
[19] = Stability in rat liver microsome assessed as binding constant at 1 uM in presence of NADPH by LC/MS/MS analysis; settings: microsomes
[20] = Acute toxicity in fasted mouse assessed as pathological changes in heart at 2 g/Kg, IG upto 2 weeks after 14 days by H and E staining based analysis; type: tissue-based; settings: in vivo, po, 2000 mg/kg, 336 h
in vitro [21] = settings: rat, liver microsomes; remark: listed apart in the source
in vitro [22] = settings: human, liver microsomes
[23] = MRT (infinity) in Sprague-Dawley rat at 5 mg/kg, po by LCMS analysis; type: ADME, organism-based; settings: in vivo
[24] = Cmax in Sprague-Dawley rat at 1 mg/kg, iv by LCMS analysis; type: ADME, organism-based; parameters: route intravenous, dose 1 mg/kg; settings: in vivo
[25] = Half life in Sprague-Dawley rat at 5 mg/kg, po by LCMS analysis; type: ADME, organism-based; settings: in vivo
in vitro [26] = settings: human, liver microsomes; remark: listed apart in the source
[27] = AUC (all) in Sprague-Dawley rat at 5 mg/kg, po by LCMS analysis; type: ADME, organism-based; parameters: dose 5 mg/kg; settings: in vivo
[28] = AUC (all) in Sprague-Dawley rat at 1 mg/kg, iv by LCMS analysis; type: ADME, organism-based; parameters: dose 1 mg/kg; settings: in vivo
[29] = Oral bioavailability in Sprague-Dawley rat at 5 mg/kg by LCMS analysis; type: ADME, organism-based; settings: in vivo
[30] = Acute toxicity in fasted mouse assessed as pathological changes in lung at 2 g/Kg, IG upto 2 weeks after 14 days by H and E staining based analysis; type: tissue-based; settings: in vivo, po, 2000 mg/kg, 336 h

## Cl.N#Cc1ccc(Nc2nccc(Nc3c(F)cc(-c4ccncc4)cc3F)n2)cc1
[1]
  AUC(0-inf): 3350 ng·h/mL
[2]
  Activity: Non-Toxic
[3]
  AUC(0-inf): 531 ng·h/mL
[4]
  Activity: Non-Toxic
[5]
  K: 0.0142 min⁻¹
[6]
  Activity: Non-Toxic
[7]
  Activity: Non-Toxic
In vitro [8]
  microsomal CLint at 1 µM: 43 µL/min/mg
[9]
  MRT inf: 50.4 min
[10]
  half-life at 1 µM: 27 min
[11]
  Activity: Non-Toxic
[12]
  K: 0.0259 min⁻¹
[13]
  half-life: 45.6 min
[14]
  Activity: Non-Toxic
[15]
  clearance: 32 mL/min/kg
[16]
  Tmax: 34.8 min
[17]
  microsomal CLint at 1 µM: 52 µL/min/mg
[18]
  Activity: Non-Toxic
[19]
  K: 0.0215 min⁻¹
[20]
  Activity: Non-Toxic
In vitro [21]
  half-life at 1 µM: 32 min
In vitro [22]
  microsomal CLint at 1 µM: 28 µL/min/mg
[23]
  MRT inf: 101 min
[24]
  Cmax: 1370 ng/mL
[25]
  half-life: 50.4 min
In vitro [26]
  half-life at 1 µM: 49 min
[27]
  AUC: 3340 ng·h/mL
[28]
  AUC: 526 ng·h/mL
[29]
  bioavailability: 126%
[30]
  Activity: Non-Toxic
